Data set [1] in a line: Evaluation of hippocampal distribution in mouse. Type of data set: in vivo. The settings on record: male ICR mice, 10 mg/kg oral; for concentration at 0.5 h / Kp at 0.5 h: 0.5 hr after administration; for concentration at 1 h / Kp at 1 h: 1 hr after administration. On the procedure:
Evaluation of Hippocampal Distribution in Mouse
(§1) Male ICR mice (hereinafter mice) were acclimated for at least one week in a rearing facility. The mice were raised in a rearing room with controlled temperature and humidity under a 12:12 hour light-dark cycle, and allowed free ingestion of feed and water.
The compounds were suspended in 0.5% methylcellulose/0.02% citric acid/distilled water and orally administered. All compounds were administered to the mice at a dose of 10 mg/kg (body weight).
Blood samples were collected at 0.5 hr, or 1 hr, or 1.5 hr from compound administration, and the hippocampus was isolated simultaneously. The plasma concentration and hippocampus concentration of each test compound were measured by the LC/MS/MS method, the ratio (hippocampus/plasma concentration ratio) was calculated, and distribution into hippocampus was evaluated.

Data set [2] concerns white blood cell number, red blood cell number, platelet number. Kind of data set: Evaluation of blood cell number in mouse. Type of data set: in vivo. The conditions noted are these: oral, Day 2 after administration. On the procedure: Evaluation of Blood Cell Number in Mouse
as §1
The compounds were suspended in 0.5% methylcellulose/0.02% citric acid/distilled water and orally administered. All compounds were administered to the mice at a dose of 1 mg/kg, 10 mg/kg, 50 mg/kg or 100 mg/kg (body weight). On Day 2 after the administration of the compound, the whole blood was collected.
Using Sysmex XT-1800i (Sysmex Corporation), the white blood cell number, red blood cell number, and platelet number in the collected whole blood per unit volume were measured. The influence of each compound on each blood cell number was determined by comparing the number with the mean of each blood cell number of the mouse without administration of the compound (control group), and the numerical value of each blood cell number of a mouse with the administration of the compound is shown in percentage. percentage (%) of blood cell number of compound administration group as compared to control group=(mean blood cell number of compound administration group mean blood cell number of compound non-administration group)×100

The mark [3] stands for this setting: hippocampus, read-out: hippocampus concentration (mean).
The mark [4] stands for this setting: hippocampus/plasma, read-out: hippocampus/plasma concentration ratio (mean).
[5] abbreviates: plasma, read-out: plasma concentration (mean).

Structures can show the parent of a compound that is named as a salt. Where two headings read alike, the source gives them in different places.

With `Cc1nnc(NC(=O)c2cccc([C@@H]3C[C@H]3NCC3CCOCC3)c2)s1` (relative stereo) [Example 112, N-(5-methyl-1,3,4-thiadiazol-2-yl)-3-(trans-2-((tetrahydro-2H-pyran-4-ylmethyl)amino)cyclopropyl)benzamide dihydrochloride], the concentration at 0.5 h in data set [1] (setting [3]) is 614 ng/g; in data set [1] (setting [5]) it was 1710 ng/mL. The Kp at 0.5 h in data set [1] (setting [4]) was determined as 0.36. The “platelet number, percentage of compound administration group compared to control group, mean” value (from here on “platelet number, percentage”) in data set [2] (10 mg/kg) worked out at 92.8%; in data set [2] (100 mg/kg), 86.3%. Moreover, the “red blood cell number, percentage of compound administration group compared to control group, mean” value (“red blood cell number, percentage” below) is 99.4% in data set [2] (10 mg/kg) and 102.0% in data set [2] (100 mg/kg). Besides, the “white blood cell number, percentage of compound administration group compared to control group, mean” value (“white blood cell number, percentage” for short) in data set [2] (10 mg/kg) amounted to 112.0%; in data set [2] (100 mg/kg), 136.1%.

For `Cc1nnc(NC(=O)c2cccc([C@@H]3C[C@H]3NC3CCC(F)(F)CC3)c2)s1` (relative stereo) [Example 167, 3-(trans-2-((4,4-difluorocyclohexyl)amino)cyclopropyl)-N-(5-methyl-1,3,4-thiadiazol-2-yl)benzamide hydrochloride], the concentration at 1 h in data set [1] (setting [3]) is 915 ng/g. Besides, the Kp at 1 h in data set [1] (setting [4]) came out at 0.74. Further, in data set [1] (setting [5]), the concentration at 1 h worked out at 1230 ng/mL. In data set [2] (10 mg/kg), the “platelet number, percentage” value was 105.3%; the “red blood cell number, percentage” value is reported as 102.5%; the “white blood cell number, percentage” value stood at 86.4%. Also, in data set [2] (100 mg/kg), the “platelet number, percentage” value is reported as 103.2%; the “red blood cell number, percentage” value is 102.4%; the “white blood cell number, percentage” value came out at 68.2%.

Turning to `Cn1cc(NC(=O)c2cccc([C@@H]3C[C@H]3NC3CCC3)c2)cn1` (relative stereo) [Example 169, 3-(trans-2-(cyclobutylamino)cyclopropyl)-N-(1-methyl-1H-pyrazol-4-yl)benzamide dihydrochloride], the concentration at 1 h in data set [1] (setting [3]) turned out to be 396 ng/g. Moreover, the Kp at 1 h in data set [1] (setting [4]) was 0.56. Besides, the concentration at 1 h in data set [1] (setting [5]) was 707 ng/mL. In addition, in data set [2] (10 mg/kg), the “platelet number, percentage” value turned out to be 102.2%; the “red blood cell number, percentage” value was determined as 105.1%; the “white blood cell number, percentage” value stood at 99.1%. In data set [2] (100 mg/kg), the “platelet number, percentage” value stood at 100.7%; the “red blood cell number, percentage” value came out at 103.7%; the “white blood cell number, percentage” value was 109.2%.

For the compound `Cn1cc(NC(=O)c2cccc([C@@H]3C[C@H]3NC3CCN(CC(F)(F)F)CC3)c2)cn1` (relative stereo) [Example 171, N-(1-methyl-1H-pyrazol-4-yl)-3-(trans-2-((1-(2,2,2-trifluoroethyl)piperidin-4-yl)amino)cyclopropyl)benzamide trihydrochloride], the concentration at 0.5 h in data set [1] (setting [3]) came out at 266 ng/g. The Kp at 0.5 h in data set [1] (setting [4]) amounted to 0.2. Besides, the concentration at 0.5 h in data set [1] (setting [5]) was 1310 ng/mL. Besides, in data set [2] (10 mg/kg), the “platelet number, percentage” value is on record as 114.6%; the “red blood cell number, percentage” value is given as 98.5%; the “white blood cell number, percentage” value turned out to be 133.3%. Also, in data set [2] (100 mg/kg), the “platelet number, percentage” value was found to be 104.8%; the “red blood cell number, percentage” value came to 98.9%; the “white blood cell number, percentage” value is recorded as 133.9%.

For the compound `Cc1nnc(NC(=O)c2cccc([C@@H]3C[C@H]3NC3CCC3)c2)s1` (relative stereo) [Example 174, 3-(trans-2-(cyclobutylamino)cyclopropyl)-N-(5-methyl-1,3,4-thiadiazol-2-yl)benzamide hydrochloride], the concentration at 1 h in data set [1] (setting [3]) was 1280 ng/g. Further, in data set [1] (setting [5]), the concentration at 1 h was determined as 1250 ng/mL. In data set [2] (10 mg/kg), the “platelet number, percentage” value was found to be 97.9%; the “red blood cell number, percentage” value was 95.4%; the “white blood cell number, percentage” value was 97.4%. Further, in data set [2] (100 mg/kg), the “platelet number, percentage” value is reported as 93.7%; the “red blood cell number, percentage” value is 100.2%; the “white blood cell number, percentage” value is given as 100.6%.

Turning to `O=C(NC1CCOCC1)c1cccc([C@@H]2C[C@H]2NC2CCC(F)(F)CC2)c1` (relative stereo) [Example 178, 3-(trans-2-((4,4-difluorocyclohexyl)amino)cyclopropyl)-N-(tetrahydro-2H-pyran-4-yl)benzamide hydrochloride], the results for the concentration at 0.5 h in data set [1] (setting [3]) and in data set [1] (setting [5]) were 546 ng/g and 1050 ng/mL, respectively. The Kp at 0.5 h in data set [1] (setting [4]) was 0.52. Further, the results for the “platelet number, percentage” value in data set [2] (10 mg/kg) and in data set [2] (100 mg/kg) were 90.2% and 85.2%, respectively. The results for the “red blood cell number, percentage” value in data set [2] (10 mg/kg) and in data set [2] (100 mg/kg) were 98.5% and 98.9%, respectively. Also, the “white blood cell number, percentage” value in data set [2] (10 mg/kg) is 93.2%; in data set [2] (100 mg/kg), 84.5%.

For the compound `Cc1nnc(NC(=O)c2cc([C@@H]3C[C@H]3NC3CCC3)ccc2F)s1` (relative stereo) [Example 183, 5-(trans-2-(cyclobutylamino)cyclopropyl)-2-fluoro-N-(5-methyl-1,3,4-thiadiazol-2-yl)benzamide dihydrochloride], in data set [1] (hippocampus, 1.5 hr after administration, read-out: hippocampus concentration (mean)), the concentration at 1.5 h is 884 ng/g. Moreover, the Kp at 1.5 h in data set [1] (hippocampus/plasma, 1.5 hr after administration, read-out: hippocampus/plasma concentration ratio (mean)) came to 1.35. The concentration at 1.5 h in data set [1] (plasma, 1.5 hr after administration, read-out: plasma concentration (mean)) turned out to be 651 ng/mL. Also, in data set [2] (10 mg/kg), the “platelet number, percentage” value stood at 96.4%; the “red blood cell number, percentage” value came to 98.5%; the “white blood cell number, percentage” value is given as 88.1%. In data set [2] (100 mg/kg), the “platelet number, percentage” value amounted to 86.6%; the “red blood cell number, percentage” value stood at 97.5%; the “white blood cell number, percentage” value is 114.9%.

`Cc1nnc(NC(=O)c2ccc(C)c([C@@H]3C[C@H]3NC3CCOCC3)c2)s1` (relative stereo) [Example 185, 4-methyl-N-(5-methyl-1,3,4-thiadiazol-2-yl)-3-(trans-2-(tetrahydro-2H-pyran-4-ylamino)cyclopropyl)benzamide hydrochloride]: the concentration at 0.5 h in data set [1] (setting [3]) came to 581 ng/g. Besides, the Kp at 0.5 h in data set [1] (setting [4]) was 0.58. The concentration at 0.5 h in data set [1] (setting [5]) worked out at 1020 ng/mL. Besides, in data set [2] (10 mg/kg), the “platelet number, percentage” value is given as 90.4%; the “red blood cell number, percentage” value was 102.0%; the “white blood cell number, percentage” value is listed as 88.0%. Also, in data set [2] (100 mg/kg), the “platelet number, percentage” value is listed as 84.7%; the “red blood cell number, percentage” value is 100.7%; the “white blood cell number, percentage” value was determined as 129.9%.

On to `Cn1cc(NC(=O)c2cccc([C@@H]3C[C@H]3NC3CCC(F)(F)CC3)c2)cn1` (relative stereo) [Example 205, 3-(trans-2-((4,4-difluorocyclohexyl)amino)cyclopropyl)-N-(1-methyl-1H-pyrazol-4-yl)benzamide dihydrochloride], for which the concentration at 1 h in data set [1] (setting [3]) is 437 ng/g. The Kp at 1 h in data set [1] (setting [4]) worked out at 0.47. For the same compound, the concentration at 1 h in data set [1] (setting [5]) was found to be 920 ng/mL. In data set [2] (10 mg/kg), the “platelet number, percentage” value is 114.7%; the “red blood cell number, percentage” value is 97.8%; the “white blood cell number, percentage” value is recorded as 81.6%. In data set [2] (100 mg/kg), the “platelet number, percentage” value is reported as 110.8%; the “red blood cell number, percentage” value was 104.0%; the “white blood cell number, percentage” value stood at 80.9%.
